Experimental data taken from patent US12091425B2 (AMGEN INC., priority 2016, dated 2024).

These compounds were tested on OPM-2 human multiple myeloma cell line (assay: Cell Viability Assay (OPM-2 10 FBS)). Conditions: Homo sapiens, OPM-2, 16 h, OPM-2 cells, 16 h, CellTiter-Glo.
Type: cell-based
Description: Cell Viability Assay (OPM-2 10 FBS)
Cells were seeded into 384-well plates at 3000 cells/well density in complete growth medium containing 10% FBS, and incubated for 16 h with serially diluted test compounds in a 37° C. incubator with 5% CO2. Cell viability was tested using CellTiter-Glo® assay (Promega, Madison, WI) according to the manufacturer recommendations. Luminescence was determined using an EnVision® Multilabel plate reader 25 min after the addition of detection reagent. IC50 values were then calculated with Xlfit using a logistical 4-parameter fit model in GraphPad Prism (GraphPad Software, San Diego, CA) or in Genedata Screener® (Genedata, Basel, Switzerland).

Compound	IC50 [nM]
CC[C@@H]1CCCCC(=O)[C@@H]2CC[C@H]2CN2C[C@@]3(CCCc4cc(Cl)ccc43)COc3ccc(cc32)C(=O)NS1(=O)=O [Example 886, (1S,3′R,6′R,12′R)-6-chloro-12′-ethyl-3,4-dihydro-2H,7′H,15′H-spiro[naphthalene-1,22′-[20]oxa[13]thia[1,14]diazatetracyclo[14.7.2.0^3,6.0^19,24]pentacosa [16,18,24]triene]-7′,15′-dione 13′,13′-dioxide]	12300

Same assay, conditions: Homo sapiens, OPM-2, 16 h, OPM-2 cells, 16 h incubation, CellTiter-Glo

Compound	IC50 [nM]
CC[C@@H]1CC/C=C/[C@H](OCC(=O)N2CCOCC2)[C@@H]2CC[C@H]2CN2C[C@@]3(CCCc4cc(Cl)ccc43)COc3ccc(cc32)C(=O)NS1(=O)=O [Example 979, (1S,3′R,6′R,7′S,8′E,12′R)-6-chloro-12′-ethyl-7′-(2-(4-morpholinyl)-2-oxoethoxy)-3,4-dihydro-2H,15′H-spiro[naphthalene-1,22′-[20]oxa[13]thia[1,14]diazatetracyclo[14.7.2.0^3,6.0^19,24]pentacosa [8,16,18,24]tetraen]-15′-one 13′,13′-dioxide]	16900

Same assay, conditions: Homo sapiens, OPM-2 cells, 16 h, CellTiter-Glo

Compound	IC50 [nM]
CO[C@H]1C/C=C/[C@H](C)[C@@H](C)S(=O)(=O)NC(=O)c2ccc3c(c2)N(C[C@@H]2CC[C@H]21)C[C@@]1(CCCc2cc(Cl)ccc21)CO3 [Example 17, (1S,3′R,6′R,7′S,9′E,11′S,12′R)-6-chloro-7′-methoxy-11′,12′-dimethyl-3,4-dihydro-2H,15′H-spiro[naphthalene-1,22′-[20]oxa[13]thia[1,14]diazatetracyclo[14.7.2.0^3,6.0^19,24]pentacosa[9,16,18,24]tetraen]-15′-one 13′,13′-dioxide]	7920

What follows are compounds tested against T1, Mcl-1/Bim interaction, recombinant human Mcl-1 (171-327) (Homo sapiens, UniProt Q07820) (assay: Cell free Mcl-1: Bim Affinity Assay (Mcl-1 HTRF)). Conditions: TR-FRET, 0.1 nM Mcl-1 (171-327), 0.05 nM biotin-Bim (51-76).
T1 construct: made in house
T1 sequence (Q07820 171-327): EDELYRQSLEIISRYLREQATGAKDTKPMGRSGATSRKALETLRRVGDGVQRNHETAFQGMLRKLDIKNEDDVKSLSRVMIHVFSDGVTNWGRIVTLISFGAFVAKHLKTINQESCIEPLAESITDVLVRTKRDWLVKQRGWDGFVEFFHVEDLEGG
Type: binding
In short: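 Compounds were mixed with the protein and a biotinylated Bim peptide spanning human residues 51-76. Plates were left overnight, then TR-FRET signal was measured. A four-parameter sigmoidal model applied to duplicate competition data gave IC50.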

Compound	IC50 [nM]
CC[C@@H]1CCCC[C@@H](NC(C)=O)[C@@H]2CC[C@H]2CN2C[C@@]3(CCCc4cc(Cl)ccc43)COc3ccc(cc32)C(=O)NS1(=O)=O [Example 1080, N-((1S,3′R,6′R,7′R,12′R)-6-chloro-12′-ethyl-13′,13′-dioxido-15′-oxo-3,4-dihydro-2H-spiro[naphthalene-1,22′-[20]oxa[13]thia[1,14]diazatetracyclo[14.7.2.0^3,6.0^19,24]pentacosa [16,18,24]trien]-7′-yl)acetamide]	1.14
CC[C@@H]1CC/C=C/[C@@H](NC(=O)C(C)C)[C@@H]2CC[C@H]2CN2C[C@@]3(CCCc4cc(Cl)ccc43)COc3ccc(cc32)C(=O)NS1(=O)=O [Example 1081]	0.947
O=C1NS(=O)(=O)CCCCCC[C@@H]2CC[C@H]2CN2C[C@@]3(CCCc4cc(Cl)ccc43)COc3ccc1cc32 [Example 1084, (1S,3′R,6′R)-6-chloro-3,4-dihydro-2H,15′H-spiro[naphthalene-1,22′-[20]oxa[13]thia[1,14]diazatetracyclo[14.7.2.0^3,6.0^19,24]pentacosa[16,18,24]trien]-15′-one 13′,13′-dioxide]	13.6
O=C1NS(=O)(=O)C[C@H](CO)C/C=C/[C@H](O)[C@@H]2CC[C@H]2CN2C[C@@]3(CCCc4cc(Cl)ccc43)COc3ccc1cc32 [Example 1085, (1S,3′R,6′R,7′S,8′E,11′S)-6-chloro-7′-hydroxy-11′-(hydroxymethyl)-3,4-dihydro-2H,15′H-spiro [naphthalene-1,22′-[20]oxa[13]thia[1,14]diazatetracyclo[14.7.2.0^3,6.0^19,24]pentacosa [8,16,18,24]tetraen]-15′-one 13′,13′-dioxide]	2.06
CO[C@@H]1/C=C/CCCS(=O)(=O)NC(=O)c2ccc3c(c2)N(C[C@@H]2CC[C@H]21)C[C@@]1(CCCc2cc(Cl)ccc21)CO3 [Example 1091, (1S,3′R,6′R,7′R,8′E)-6-chloro-7′-methoxy-3,4-dihydro-2H,15′H-spiro [naphthalene-1,22′-[20]oxa[13]thia[1,14]diazatetracyclo[14.7.2.0^3,6.0^19,24]pentacosa [8,16,18,24]tetraen]-15′-one 13′,13′-dioxide]	3.69

Second part, the compound after the results:

IC50 [nM]	Compound
3.45	CC[C@@H]1CC/C=C/[C@H](NC(=O)C(C)C)[C@@H]2CC[C@H]2CN2C[C@@]3(CCCc4cc(Cl)ccc43)COc3ccc(cc32)C(=O)NS1(=O)=O [Example 1077, N-((1S,3′R,6′R,7′S,8′E,12′R)-6-chloro-12′-ethyl-13′,13′-dioxido-15′-oxo-3,4-dihydro-2H-spiro[naphthalene-1,22′-[20]oxa[13]thia[1,14]diazatetracyclo[14.7.2.0^3,6.0^19,24]pentacosa [8,16,18,24]tetraen]-7′-yl)-2-methylpropanamide]
18	CC[C@@H]1CC/C=C\[C@@H](NC(=O)C(C)C)[C@@H]2CC[C@H]2CN2C[C@@]3(CCCc4cc(Cl)ccc43)COc3ccc(cc32)C(=O)NS1(=O)=O [Example 1082]
2.19	CC[C@@H]1CCCC[C@@H](NC(=O)C(C)C)[C@@H]2CC[C@H]2CN2C[C@@]3(CCCc4cc(Cl)ccc43)COc3ccc(cc32)C(=O)NS1(=O)=O [Example 1083]
2.54	CC[C@@H]1CC/C=C/[C@@H](OC)[C@@H]2CC[C@H]2CN2C[C@@]3(CCCc4cc(Cl)ccc43)COc3ccc(cc32)C(=O)NS1(=O)=O [Example 1093, (1S,3′R,6′R,7′R,8′E,12′R)-6-chloro-7′-methoxy-12′-ethyl-3,4-dihydro-2H,15′H-spiro [naphthalene-1,22′-[20]oxa[13]thia[1,14]diazatetracyclo[14.7.2.0^3,6.0^19,24]pentacosa [8,16,18,24]tetraen]-15′-one 13′,13′-dioxide]
17.8	CO[C@@H]1CCCCCS(=O)(=O)NC(=O)c2ccc3c(c2)N(C[C@@H]2CC[C@H]21)C[C@@]1(CCCc2cc(Cl)ccc21)CO3 [Example 1094, (1S,3′R,6′R,7′R)-6-chloro-7′-methoxy-3,4-dihydro-2H,15′H-spiro [naphthalene-1,22′-[20]oxa[13]thia[1,14]diazatetracyclo[14.7.2.0^3,6.0^19,24]pentacosa [16,18,24]trien]-15′-one 13′,13′-dioxide]
1.29	CS(=O)(=O)CCO[C@@H]1/C=C/CCCS(=O)(=O)NC(=O)c2ccc3c(c2)N(C[C@@H]2CC[C@H]21)C[C@@]1(CCCc2cc(Cl)ccc21)CO3 [Example 1095, (1S,3′R,6′R,7′R,8′E)-6-chloro-7′-(2-(methylsulfonyl)ethoxy)-3,4-dihydro-2H,15′H-spiro [naphthalene-1,22′-[20]oxa[13]thia[1,14]diazatetracyclo[14.7.2.0^3,6.0^19,24]pentacosa [8,16,18,24]tetraen]-15′-one 13′,13′-dioxide]
3.48	CS(=O)(=O)CCO[C@@H]1CCCCCS(=O)(=O)NC(=O)c2ccc3c(c2)N(C[C@@H]2CC[C@H]21)C[C@@]1(CCCc2cc(Cl)ccc21)CO3 [Example 1096, (1S,3′R,6′R,7′R)-6-chloro-7′-(2-(methylsulfonyl)ethoxy)-3,4-dihydro-2H,15′H-spiro [naphthalene-1,22′-[20]oxa[13]thia[1,14]diazatetracyclo[14.7.2.0^3,6.0^19,24]pentacosa [16,18,24]trien]-15′-one 13′,13′-dioxide]

Same assay, conditions: cell free Mcl-1:Bim TR-FRET, recombinant human Mcl-1 (171-327)

Compound	IC50 [nM]
(1S,3′R,6′S,14′S,15′R)-6-chloro-3,4-dihydro-2H,9′H,17′H-spiro[naphthalene-1,24′-[22]oxa[15]thia[1,10,16]triazapentacyclo[16.7.2.1^10,14.0^3,6.0^21,26]octacosa[18,20,26]triene]-9′,17′-dione 15′-oxide or (1S,3′R,6′S,14′S,15′S)-6-chloro-3,4-dihydro-2H,9′H,17′H-spiro[naphthalene-1,24′-[22]oxa[15]thia[1,10,16]triazapentacyclo[16.7.2.1^10,14.0^3,6.0^21,26]octacosa[18,20,26]triene]-9′,17′-dione 15′-oxide [Example 948]	10.3
(1S,3′R,6′S,14′S,15′S)-6-chloro-3,4-dihydro-2H,9′H,17′H-spiro[naphthalene-1,24′-[22]oxa[15]thia[1,10,16]triazapentacyclo[16.7.2.1^10,14.0^3,6.0^21,26]octacosa[18,20,26]triene]-9′,17′-dione 15′-oxide or (1S,3′R,6′S,14′S,15′R)-6-chloro-3,4-dihydro-2H,9′H,17′H-spiro[naphthalene-1,24′-[22]oxa[15]thia[1,10,16]triazapentacyclo[16.7.2.1^10,14.0^3,6.0^21,26]octacosa[18,20,26]triene]-9′,17′-dione 15′-oxide [Example 949]	8.43
(3R,6R,7R,11E,22S)-6′-chloro-7-hydroxy-3′,4′-dihydro-2′H,15H-spiro[9,20-dioxa-13-thia-1,14-diazatetracyclo[14.7.2.0^3,6.0^19,24]pentacosa-11,16,18,24-tetraene-22,1′-naphthalen]-15-one 13,13-dioxide or (3R,6R,7S,11E,22S)-6′-chloro-7-hydroxy-3′,4′-dihydro-2′H,15H-spiro[9,20-dioxa-13-thia-1,14-diazatetracyclo[14.7.2.0^3,6.0^19,24]pentacosa-11,16,18,24-tetraene-22,1′-naphthalen]-15-one 13,13-dioxide [Example 863]	5.38
N-((1S,3′R,6′R,7′S)-6-chloro-13′,13′-dioxido-15′-oxo-3,4-dihydro-2H-spiro[naphthalene-1,22′-[20]oxa[13]thia[1,14]diazatetracyclo[14.7.2.0^3,6.0^19,24]pentacosa [16,18,24]trien]-7′-yl)acetamide or N-((1S,3′R,6′R,7′R)-6-chloro-13′,13′-dioxido-15′-oxo-3,4-dihydro-2H-spiro[naphthalene-1,22′-[20]oxa[13]thia[1,14]diazatetracyclo[14.7.2.0^3,6.0^19,24]pentacosa [16,18,24]trien]-7′-yl)acetamide [Example 934]	2.07
